Measurements published in patent US10695325B2, “Compounds and methods for treating an epileptic disorder” (priority 2013, dated 2020).
Counter-ions that a name gives are not always drawn. Like-named read-outs stand apart in the source and are kept apart here.

Key:
mice = conditions: mouse, in vivo
6 Hz (32 mA) model = assay: 6 Hz (32 mA) model; type: in vivo, mice; conditions: identification screen IP
Description: ASP469016 was tested in our initial T31 (MES/scMET/Tox) screen at 30, 100, and 300 mg/kg. The data for each condition is presented as N/F, where N equals the number of animals protected and F equals the number of animals tested. For tests of toxicity (TOX), N equals the number of animals displaying toxic effects and F equals the number of animals tested. Codes in the C column refer to comments from the technicians performing the experiment and are defined in the comments section if necessary. Any deaths are noted. As shown in the 6 Hz (32 mA) model only 1/4 animals were protected at 100 mg/kg at 30 min. In the MES-induced seizure model only 1/4 animals were protected at 100 and 300 mg/kg at 30 min. No toxicity (unable to grasp rotorod) or activity was detected at any other dose or time point tested.

scMET model = assay: scMET model; type: in vivo, mice; conditions: for N/F (animals protected over tested): IP quantification, 0.5 h
[1] = test system: MES-induced seizure model; assay: MES-induced seizure model; type: in vivo, mice; conditions: for ED50, MES: mice IP, 0.5 hrs
scn1Lab mutant zebrafish [2] = type: in vivo, Danio rerio (zebrafish); conditions: for inhibition of spontaneous seizure behavior, initial screen: 667 μM; for swim activity / seizure behavior, third trial: 100 μM
wild-type larvae = assay: DMSO toxicity in larvae; conditions: dilutions between 0.01 and 100%; n=12 fish per concentration
scn1Lab mutant zebrafish [3] = type: in vivo, Danio rerio (zebrafish); conditions: for forebrain electrographic seizure activity after the locomotion assay: 100 μM
[4] = test system: WT zebrafish exposed to 15 mM pentylenetetrazole; assay: PTZ-induced seizure behavior, locomotion assay; type: in vivo; conditions: 100 μM, n=10
[5] = 1 mM (KD: 48 hr exposure), 5 dpf

Clc1ccc(Cn2c(CN3CCCC3)nc3ccccc32)cc1 [ASP469016]
activity or toxicity (unable to grasp rotorod) (mice): No activity or toxicity | N/F (animals toxic over tested) (mice; 400 mg/kg): 0/8 | N/F (animals toxic over tested) (mice; 500 mg/kg): 0/4 | ED50, TOX (mice; ip): >500 mg/kg | N/F (animals toxic over tested) (mice; ip, 30 mg/kg): 0/8 | N/F (animals toxic over tested) (mice; ip, 100 mg/kg): 0/8 | N/F (animals toxic over tested) (mice; ip, 300 mg/kg): 0/8 | N/F (animals toxic over tested) (mice; ip, 500 mg/kg): 0/4 | N/F (animals protected over tested) (6 Hz (32 mA) model; 30 mg/kg, 0.5 h): 0/4 | N/F (animals protected over tested) (6 Hz (32 mA) model; 30 mg/kg, 2.0 h): 0/4 | N/F (animals protected over tested) (6 Hz (32 mA) model; 100 mg/kg, 0.5 h): 1/4 | N/F (animals protected over tested) (6 Hz (32 mA) model; 100 mg/kg, 2.0 h): 0/4 | N/F (animals protected over tested) (6 Hz (32 mA) model; 300 mg/kg, 0.5 h): 0/4 | N/F (animals protected over tested) (6 Hz (32 mA) model; 300 mg/kg, 2.0 h): 0/4 | N/F (animals protected over tested) (scMET model; 200 mg/kg): 0/8 | N/F (animals protected over tested) (scMET model; 250 mg/kg): 0/4 | ED50, SCMET (scMET model; mice IP, 0.5 hrs): >250.0 mg/kg | activity in the scMET model (scMET model; quantitative testing): No activity | activity during determination of the TPE in the MES model ([1]; 300 mg/kg starting dose): no activity | activity in the qualitative MES screen ([1]; 100 and 300 mg/kg doses): some activity | N/F (animals protected over tested) ([1]; IP quantification, 350 mg/kg, 0.5 h): 0/8 | N/F (animals protected over tested) ([1]; IP quantification, 400 mg/kg, 0.5 h): 7/8 | N/F (animals protected over tested) ([1]; IP quantification, 500 mg/kg, 0.5 h): 4/4 | N/F (animals protected over tested) ([1]; identification screen IP, 30 mg/kg, 0.5 h): 0/4 | N/F (animals protected over tested) ([1]; identification screen IP, 30 mg/kg, 2.0 h): 0/4 | N/F (animals protected over tested) ([1]; identification screen IP, 100 mg/kg, 0.5 h): 1/4 | N/F (animals protected over tested) ([1]; identification screen IP, 100 mg/kg, 2.0 h): 0/4 | N/F (animals protected over tested) ([1]; identification screen IP, 300 mg/kg, 0.5 h): 1/4 | N/F (animals protected over tested) ([1]; identification screen IP, 300 mg/kg, 2.0 h): 0/4 | ED50, MES [1]: < 400 mg/kg | ED50, MES ([1]; listed as 469016): <400.0 mg/kg | N/F (animals protected over tested) ([1]; time to peak effect, 300 mg/kg, 0.25 h): 0/4 | N/F (animals protected over tested) ([1]; time to peak effect, 300 mg/kg, 0.5 h): 0/4 | N/F (animals protected over tested) ([1]; time to peak effect, 300 mg/kg, 1.0 h): 0/4 | N/F (animals protected over tested) ([1]; time to peak effect, 300 mg/kg, 2.0 h): 0/4 | N/F (animals protected over tested) ([1]; time to peak effect, 300 mg/kg, 4.0 h): 0/4 | N/F (animals protected over tested) ([1]; time to peak effect, 500 mg/kg, 0.25 h): 2/4 | N/F (animals protected over tested) ([1]; time to peak effect, 500 mg/kg, 1.0 h): 0/4 | N/F (animals protected over tested) ([1]; time to peak effect, 500 mg/kg, 2.0 h): 0/4 | N/F (animals protected over tested) ([1]; time to peak effect, 500 mg/kg, 4.0 h): 0/4

CC(=O)Nc1nnc(S(N)(=O)=O)s1 [Acetazolamide]
effect on locomotor seizure behavior (scn1Lab mutant zebrafish [2]; zebrafish, in vivo): increased seizure behavior

C[S+](C)[O-] [DMSO]
lethal DMSO dilution (wild-type larvae): > 25%

NCC(O)CC(=O)O (centres unmarked) [aminohydroxybutyric acid]
inhibition of spontaneous seizure behavior, initial screen (scn1Lab mutant zebrafish [2]; 5 dpf, 6-12 fish): ineffective

O=C(CCCl)NCc1ccccc1 [beclamide]
inhibition of spontaneous seizure behavior, initial screen (scn1Lab mutant zebrafish [2]): ineffective

NC(=O)N1c2ccccc2C=Cc2ccccc21 [carbamazepine]
Epileptiform event frequency (burst frequency; interictal- and ictal-like discharges) (scn1Lab mutant zebrafish [3]; zebrafish, in vivo): increased burst frequency | fish in which epileptiform activity became more frequent (scn1Lab mutant zebrafish [3]; zebrafish, in vivo): 2 of 7

Clc1ccc(Cn2c(CN3CCCC3)nc3ccccc32)cc1 [clemizole]
forebrain electrographic seizure activity after the locomotion assay (scn1Lab mutant zebrafish [3]): effective in suppressing spontaneous seizure activity | burst duration (scn1Lab mutant zebrafish [3]; n=7): 154 ± 127 ms | burst frequency (scn1Lab mutant zebrafish [3]; n=7): 0.2±0.01 bursts/min | fractional time spent seizing (scn1Lab mutant zebrafish [3]; n=7): 0.03±0.02% | swim activity / seizure behavior, third trial (scn1Lab mutant zebrafish [2]): effective in suppressing spontaneous seizure activity | seizure behavior in the locomotion assay (scn1Lab mutant zebrafish [2]; n=33): no significant effect | seizure-induced swim activity and mean velocity, re-test (scn1Lab mutant zebrafish [2]; zebrafish, in vivo): effective in reducing seizure-induced swim activity and mean velocity | PTZ-induced seizure behavior [4]: effective in reducing seizure behavior

C#CCN(C)CCCOc1ccc(Cl)cc1Cl [clorgiline HCl]
forebrain electrographic seizure activity after the locomotion assay (scn1Lab mutant zebrafish [3]): electrographic seizure events were still observed | swim activity / seizure behavior, third trial (scn1Lab mutant zebrafish [2]): reduced swim activity | seizure-induced swim activity and mean velocity, re-test (scn1Lab mutant zebrafish [2]; zebrafish, in vivo): effective in reducing seizure-induced swim activity and mean velocity

CN1C(=O)CN=C(c2ccccc2)c2cc(Cl)ccc21 [diazepam]
fractional time spent seizing (scn1Lab mutant zebrafish [3]; 1 mM bath applied, 5-6 dpf, vs baseline): reduced | Epileptiform event frequency (burst frequency; interictal- and ictal-like discharges) (scn1Lab mutant zebrafish [3]; 1 mM bath applied, agar-embedded mutants 5-6 dpf, vs baseline, 7 fish per drug): reduced | effect on locomotor seizure behavior (scn1Lab mutant zebrafish [2]; [5]): effectively inhibited seizure behavior

CCC1(C)CC(=O)NC1=O (centres unmarked) [ethosuximide]
fish in which epileptiform activity became more frequent (scn1Lab mutant zebrafish [3]; zebrafish, in vivo): 4 of 7 | effect on locomotor seizure behavior (scn1Lab mutant zebrafish [2]; zebrafish, in vivo): increased seizure behavior

CC(=O)[C@H]1CC[C@H]2[C@@H]3CC[C@H]4C[C@](C)(O)CC[C@]4(C)[C@H]3CC[C@]12C [ganaxolone]
effect on locomotor seizure behavior (scn1Lab mutant zebrafish [2]; [5]): effective

CC(C)CCCC(C)NC(C)C (centres unmarked) [iproheptine]
convulsive behavior (H1 antihistamines) (scn1Lab mutant zebrafish [2]; locomotor seizure assay, 5 dpf): failed to suppress convulsive behavior

Nc1nnc(-c2cccc(Cl)c2Cl)c(N)n1 [lamotrigine]
effect on locomotor seizure behavior (scn1Lab mutant zebrafish [2]; zebrafish, in vivo): no effect

CC[C@@H](C(N)=O)N1CCCC1=O [levetiracetam]
effect on locomotor seizure behavior (scn1Lab mutant zebrafish [2]; zebrafish, in vivo): no effect

CN1CCc2c(c3ccccc3n2Cc2ccccc2)C1.CN1CCc2c(c3ccccc3n2Cc2ccccc2)C1.O=S(=O)(O)c1cccc2c(S(=O)(=O)O)cccc12 [mebhydrolin napthalenesulfonate]
convulsive behavior (H1 antihistamines) (scn1Lab mutant zebrafish [2]; zebrafish, in vivo): failed to suppress convulsive behavior

CN1CCC(=C2c3ccccc3Sc3ccccc32)CC1 [pimethixene maleate]
convulsive behavior (H1 antihistamines) (scn1Lab mutant zebrafish [2]; zebrafish, in vivo): failed to suppress convulsive behavior

[Br-].[K+] [potassium bromide]
Epileptiform event frequency (burst frequency; interictal- and ictal-like discharges) (scn1Lab mutant zebrafish [3]; zebrafish, in vivo): reduced | fractional time spent seizing (scn1Lab mutant zebrafish [3]; zebrafish, in vivo): reduced | effect on locomotor seizure behavior (scn1Lab mutant zebrafish [2]; zebrafish, in vivo): effectively inhibited seizure behavior

CC(C)(C)C(O)/C=C/c1ccc2c(c1)OCO2 (centres unmarked) [stiripentol]
Epileptiform event frequency (burst frequency; interictal- and ictal-like discharges) (scn1Lab mutant zebrafish [3]; zebrafish, in vivo): reduced | fractional time spent seizing (scn1Lab mutant zebrafish [3]; zebrafish, in vivo): reduced | effect on locomotor seizure behavior (scn1Lab mutant zebrafish [2]; zebrafish, in vivo): effectively inhibited seizure behavior

CCNC1(c2cccs2)CCCCC1=O (centres unmarked) [tiletamine]
inhibition of spontaneous seizure behavior, initial screen (scn1Lab mutant zebrafish [2]; 5 dpf, 6-12 fish): ineffective

Cc1ccc(C(=O)C(C)CN2CCCCC2)cc1 (centres unmarked) [tolperisone HCl]
forebrain electrographic seizure activity after the locomotion assay (scn1Lab mutant zebrafish [3]): electrographic seizure events were still observed | swim activity / seizure behavior, third trial (scn1Lab mutant zebrafish [2]): reduced swim activity | seizure-induced swim activity and mean velocity, re-test (scn1Lab mutant zebrafish [2]; zebrafish, in vivo): effective in reducing seizure-induced swim activity and mean velocity

C=CC(N)CCC(=O)O (centres unmarked) [vigabatrin]
Epileptiform event frequency (burst frequency; interictal- and ictal-like discharges) (scn1Lab mutant zebrafish [3]; zebrafish, in vivo): increased burst frequency | fish in which epileptiform activity became more frequent (scn1Lab mutant zebrafish [3]; zebrafish, in vivo): 6 of 7
